Source: ChEMBL document CHEMBL1122287, “N2-1H-benzimidazol-2-yl-N4-phenyl-2,4-pyrimidinediamines and N2-1H-benzimidazol-2-yl-5,6,7,8-tetrahydro-N4-phenyl-2,4-quinazolinediamines as potential antifilarial agents” (1983)

Experiments:
[1] = tested on: Brugia pahangi; experiment: Antifilarial activity against Brugia pahangi in jirds was determined after subcutaneous administration of 100 mg/kg/day.; type: functional, organism-based
[2] = tested on: Litomosoides carinii; experiment: Antifilarial activity against circulating Litomosoides carinii microfilaria; type: functional; design: concentration or dose not given beside the values
[3] = tested on: Litomosoides carinii; experiment: Antifilarial activity against Litomosoides carinii adults; type: functional; design: concentration or dose not given beside the values

Row | SMILES | Reduction [1] | Reduction [2] [%] | Reduction [3] [%]
1 | CN1CCN(Cc2cc(Nc3nc(Nc4nc5cc(Cl)c(Cl)cc5[nH]4)nc4c3CCCC4)ccc2O)CC1 | Not significant | <90 | <60
2 | Cc1cc(Nc2ccc(O)c(CN3CCCC3)c2)nc(Nc2nc3cc(Cl)c(Cl)cc3[nH]2)n1 | Not significant | <90 | <60
3 | CCNCc1cc(Nc2cc(C(F)(F)F)nc(Nc3nc4cc(C(=O)c5ccccc5)ccc4[nH]3)n2)ccc1OC | Not significant | <90 | <60
4 | CCN(CC)Cc1cc(Nc2cc(C(F)(F)F)nc(Nc3nc4cc(C(=O)c5ccccc5)ccc4[nH]3)n2)ccc1OC | Not significant | <90 | <60
5 | CCN(CC)Cc1cc(Nc2cc(C(F)(F)F)nc(Nc3nc4cc(Cl)c(Cl)cc4[nH]3)n2)cc(-c2ccccc2)c1O | Not significant | <90 | <60
6 | CCOC(=O)N1CCN(Cc2cc(Nc3cc(C(F)(F)F)nc(Nc4nc5cc(Cl)c(Cl)cc5[nH]4)n3)cc(-c3ccccc3)c2O)CC1 | Not significant | <90 | <60
7 | CCN(CC)Cc1cc(Nc2cc(C(F)(F)F)nc(Nc3nc4cc(C(=O)c5ccccc5)ccc4[nH]3)n2)ccc1O | Not significant | <90 | <60
8 | Cc1cc(Nc2ccc(O)c(CN3CCN(C)CC3)c2)nc(Nc2nc3cc(Cl)c(Cl)cc3[nH]2)n1 | Not significant | <90 | <60
9 | CCN(CC)Cc1cc(Nc2cc(C(F)(F)F)nc(Nc3nc4cc(Cl)c(Cl)cc4[nH]3)n2)ccc1OC | Not significant | <90 | <60
10 | CNCc1cc(Nc2cc(C)nc(Nc3nc4cc(Cl)c(Cl)cc4[nH]3)n2)ccc1O | Not significant | <90 | <60
11 | CCNCc1cc(Nc2nc(Nc3nc4cc(Cl)c(Cl)cc4[nH]3)nc3c2CCCC3)ccc1OC | Not significant | <90 | <60
12 | CCN(CC)Cc1cc(Nc2cc(C)nc(Nc3nc4cc(Cl)c(Cl)cc4[nH]3)n2)ccc1OC | Not significant | <90 | <60
13 | CCOc1ccc(Nc2cc(C)nc(Nc3nc4cc(Cl)c(Cl)cc4[nH]3)n2)cc1CN(CC)CC | Not significant | <90 | <60
14 | CCNCc1cc(Nc2cc(C)nc(Nc3nc4cc(Cl)c(Cl)cc4[nH]3)n2)ccc1OC | Not significant | <90 | <60
15 | CCN(CC)Cc1cc(Nc2cc(C)nc(Nc3nc4cc(Cl)c(Cl)cc4[nH]3)n2)ccc1O | Not significant | <90 | <60
16 | CN1CCN(Cc2cc(Nc3cc(C(F)(F)F)nc(Nc4nc5cc(C(=O)c6ccccc6)ccc5[nH]4)n3)ccc2O)CC1 | Not significant | <90 | <60
17 | CCOc1ccc(Nc2nc(Nc3nc4cc(Cl)c(Cl)cc4[nH]3)nc3c2CCCC3)cc1CN(CC)CC | Not significant | <90 | <60
18 | CCN(CC)Cc1cc(Nc2cc(C(F)(F)F)nc(Nc3nc4cc(Cl)c(Cl)cc4[nH]3)n2)ccc1O | Not significant | <90 | <60
19 | CCN(CC)Cc1cc(Nc2nc(Nc3nc4cc(Cl)c(Cl)cc4[nH]3)nc3c2CCCC3)ccc1O | Not significant | <90 | <60
20 | CCN(CC)Cc1cc(Nc2cc(-c3ccccc3)nc(Nc3nc4cc(Cl)c(Cl)cc4[nH]3)n2)ccc1O | Not significant | <90 | <60
